From ChEMBL document CHEMBL1201862, “PubChem BioAssay data set” (2004) come the findings set out here.

Some test systems named below: EKVX; OVCAR-3; NCI-H23; SNB-75; NCI-H522; SW-620; COLO 205; PC-3; K562; IGROV-1; A549; HOP-62; NCI-H226; 786-0; CCRF-CEM; TK-10; HOP-92; SNB-19; RXF 393; BT-549.
What all share (assay): growth of human tumour cells (NCI), 48 h

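Protocol summary: plate cells (96-well), add compound at 5 concentrations, incubate 48 h, interpolate endpoints linearly. GI50 is the concentration that inhibits growth by half.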 The source made the active and inactive calls. Cut-off read from the data, not from the text of the source: active = GI50 up to about 1.1 µM and inactive = higher. Bounds are passed on as bounds.

Regarding `C/C(=N/NC(=S)Nc1ccc(Cl)cc1)c1cccc(/C(C)=N\NC(=S)Nc2ccc(Cl)cc2)n1`, the GI50 in the assay on EKVX was 5.45 µM (inactive); with OVCAR-3, 1.49 µM (inactive); with NCI-H23, 13.2 µM (inactive); in the assay on SNB-75, 7.48 µM (inactive); with NCI-H522, 4.29 µM (inactive); in the assay on SW-620 it was 4.12 µM (inactive). Also, the GI50 in the assay with COLO 205 was 3.56 µM (inactive); in the assay on PC-3, 3.47 µM (inactive); with K562, 5.02 µM (inactive); in the assay on IGROV-1, 1.74 µM (inactive); in the assay on A549, 5.55 µM (inactive); in the assay with HOP-62, 2.76 µM (inactive). In addition, the GI50 in the assay with NCI-H226 was 3.54 µM (inactive); in the assay with 786-0, 0.594 µM (active); in the assay with CCRF-CEM, 1.68 µM (inactive); in the assay with TK-10, 2.81 µM (inactive); in the assay with HOP-92, 3.17 µM (inactive); in the assay with SNB-19, 9.73 µM (inactive). For the same compound, the GI50 with RXF 393 was 4.01 µM (inactive).

Turning to `COc1ccc(-n2cnc3c2=NC(C)(C)NC=3C(N)=O)c(OC)c1`, the GI50 with EKVX, in the assay on OVCAR-3, in the assay with NCI-H23, in the assay on SNB-75, in the assay with NCI-H522 and in the assay with SW-620 was > 100 µM (inactive) in each case. In addition, the GI50 in the assay on COLO 205, in the assay with PC-3, in the assay on K562, in the assay with IGROV-1, in the assay on A549 and in the assay with HOP-62 was > 100 µM (inactive) throughout. Besides, the GI50 in the assay on NCI-H226 is > 100 µM (inactive); in the assay with 786-0, > 100 µM (inactive); in the assay on CCRF-CEM, > 100 µM (inactive); in the assay on TK-10 it was > 100 µM (inactive); in the assay with HOP-92 it was 42.1 µM (inactive); in the assay with SNB-19 it was > 100 µM (inactive). In addition, the GI50 with RXF 393 was > 100 µM (inactive).

With `CCOC1OCCCC1Br` (centres undefined), the GI50 in the assay on EKVX, in the assay with OVCAR-3, with NCI-H23, with SNB-75, in the assay on NCI-H522 and with SW-620 was > 100 µM (inactive) each time. For the same compound, the GI50 in the assay with COLO 205, in the assay on PC-3, in the assay on K562, in the assay with IGROV-1, with A549 and with HOP-62 was > 100 µM (inactive) throughout. Also, the GI50 in the assay on NCI-H226, in the assay on 786-0, with CCRF-CEM, in the assay with TK-10, with HOP-92 and in the assay on SNB-19 was > 100 µM (inactive) each time. For the same compound, the GI50 in the assay with RXF 393 is > 100 µM (inactive).

Consider `CC1(C)N=c2[nH]cnc2=C(C(N)=O)N1`, for which the GI50 in the assay on EKVX, in the assay with OVCAR-3, in the assay on NCI-H23, in the assay with SNB-75, in the assay on NCI-H522 and with SW-620 was > 100 µM (inactive) each time. For the same compound, the GI50 in the assay on COLO 205, in the assay on PC-3, in the assay with K562, in the assay on IGROV-1, with A549 and in the assay with HOP-62 was > 100 µM (inactive) in each case. In addition, the GI50 in the assay on NCI-H226, with 786-0, with CCRF-CEM, with TK-10, in the assay with HOP-92 and in the assay on SNB-19 was > 100 µM (inactive) in each case. Also, the GI50 in the assay on RXF 393 is > 100 µM (inactive).

Take `CCCOC(=O)c1cc(C(=CCC[C@H]2CC[C@@]3(C)[C@@H](CC[C@@H]4[C@@H]3CC[C@]3(C)[C@@H](C(C)CCCC(C)C)CC[C@@H]43)C2)c2cc(Cl)c(O)c(C(=O)OCCC)c2)cc(Cl)c1O` (some centres undefined): the GI50 with EKVX, in the assay with OVCAR-3, with NCI-H23, in the assay on BT-549, with SNB-75 and in the assay with SW-620 was > 50 µM (inactive) each time. For the same compound, the GI50 with COLO 205 is > 50 µM (inactive); in the assay on PC-3, > 50 µM (inactive); in the assay with K562, > 5 µM (inactive); with IGROV-1, > 50 µM (inactive); with HOP-62, > 50 µM (inactive); in the assay with NCI-H226 it was > 50 µM (inactive). Further, the GI50 with 786-0, with CCRF-CEM and in the assay on SNB-19 was > 50 µM (inactive) throughout.

Consider `Clc1sc(Cl)c2c1[C@@H](Cl)C[C@@H]2Cl`, for which the GI50 was 62.5 µM (inactive) in the assay with EKVX; > 100 µM (inactive) in the assay with OVCAR-3; 53.8 µM (inactive) in the assay on NCI-H23; > 100 µM (inactive) in the assay with BT-549; 33.3 µM (inactive) in the assay with SNB-75; 18.9 µM (inactive) in the assay on NCI-H522. Further, the GI50 in the assay with SW-620 was 57.1 µM (inactive); in the assay with COLO 205, > 100 µM (inactive); in the assay on K562, 48.5 µM (inactive); with IGROV-1 it was 48.1 µM (inactive); in the assay on A549 it was 61.9 µM (inactive); in the assay on HOP-62, > 100 µM (inactive). The GI50 in the assay on NCI-H226 was 57.3 µM (inactive); with 786-0, > 100 µM (inactive); with CCRF-CEM it was 23.7 µM (inactive); with TK-10 it was > 100 µM (inactive); with HOP-92, 37.4 µM (inactive).

In the case of `O=C1OC([C@H](O)c2cccnc2)c2ccccc21` (some centres undefined), the GI50 in the assay on EKVX, in the assay on OVCAR-3, in the assay with NCI-H23, with SNB-75, in the assay with NCI-H522 and in the assay with SW-620 was > 10 µM (inactive) each time. For the same compound, the GI50 in the assay on COLO 205, in the assay with PC-3, in the assay on K562, in the assay on IGROV-1, in the assay on A549 and in the assay on HOP-62 was > 10 µM (inactive) throughout. Besides, the GI50 in the assay on NCI-H226, with 786-0, in the assay with CCRF-CEM, in the assay on TK-10, with HOP-92 and with SNB-19 was > 10 µM (inactive) throughout. Moreover, in the assay with RXF 393, the GI50 was > 10 µM (inactive).

`CCOC(=O)CCC(NC(=O)c1ccc(Nc2cnc3cc(C(F)(F)F)ccc3n2)cc1)C(=O)OCC` (centres undefined): the GI50 in the assay on EKVX is > 84.7 µM (inactive); in the assay with OVCAR-3, > 100 µM (inactive); with NCI-H23, 27.7 µM (inactive); in the assay on BT-549 it was 18.5 µM (inactive); in the assay on SNB-75 it was 1.9 µM (inactive); in the assay on NCI-H522, 30.3 µM (inactive). In addition, the GI50 with SW-620 is > 100 µM (inactive); in the assay with COLO 205 it was 80.4 µM (inactive); in the assay on K562, 93.1 µM (inactive); with IGROV-1, 42 µM (inactive); in the assay on A549, > 89.3 µM (inactive); in the assay on HOP-62 it was 11 µM (inactive). The GI50 with NCI-H226 is > 79.6 µM (inactive); in the assay with 786-0, 9.75 µM (inactive); with CCRF-CEM it was > 100 µM (inactive); in the assay with TK-10 it was > 87.9 µM (inactive); in the assay on HOP-92 it was 23.9 µM (inactive); with SNB-19, 11.7 µM (inactive). Moreover, the GI50 in the assay on RXF 393 is 3.55 µM (inactive).

Take `C/C(=C\c1ccc2c(c1)OCO2)[N+](=O)[O-]`: the GI50 in the assay with EKVX is 4.08 µM (inactive); in the assay on OVCAR-3, 1.66 µM (inactive); with NCI-H23 it was 2.46 µM (inactive); in the assay with SNB-75, 5.16 µM (inactive); in the assay with NCI-H522, 1.64 µM (inactive); in the assay with SW-620 it was 2.59 µM (inactive). Also, the GI50 is 1.66 µM (inactive) in the assay with COLO 205; 2.64 µM (inactive) in the assay on PC-3; 1.64 µM (inactive) in the assay on K562; 2.34 µM (inactive) in the assay on IGROV-1; 4.2 µM (inactive) in the assay with A549; 3.56 µM (inactive) in the assay on HOP-62. Besides, the GI50 was 3.84 µM (inactive) in the assay on NCI-H226; 1.56 µM (inactive) in the assay on 786-0; < 0.01 µM (active) in the assay with CCRF-CEM; 2.45 µM (inactive) in the assay on TK-10; 2.51 µM (inactive) in the assay on HOP-92; 2.49 µM (inactive) with SNB-19. Further, the GI50 with RXF 393 was 1.46 µM (inactive).

Take `CO/C(=N\N=C\c1ccc(OC)c(OC)c1)c1ccncc1`: the GI50 in the assay on EKVX, with NCI-H23, in the assay on BT-549, in the assay on SNB-75, in the assay with SW-620 and in the assay on COLO 205 was > 10 µM (inactive) throughout. In addition, the GI50 in the assay on K562, in the assay on IGROV-1, in the assay on A549, in the assay on HOP-62, in the assay with NCI-H226 and in the assay with 786-0 was > 10 µM (inactive) each time. The GI50 in the assay on CCRF-CEM, in the assay on TK-10 and with HOP-92 was > 10 µM (inactive) throughout.

Take `COc1ccc(CC2C3=C(CCN2C(=O)C2CCC2)CC2(CC3)OCCO2)cc1O` (centres undefined): the GI50 is 38.8 µM (inactive) in the assay with EKVX; 18 µM (inactive) in the assay on OVCAR-3; 19.2 µM (inactive) with NCI-H23; 15 µM (inactive) in the assay with SNB-75; 17.9 µM (inactive) with NCI-H522; 31.3 µM (inactive) in the assay on SW-620. The GI50 in the assay on COLO 205 is 22.8 µM (inactive); in the assay with PC-3, 31.3 µM (inactive); with K562 it was 22.6 µM (inactive); in the assay on IGROV-1, 35.1 µM (inactive); with A549 it was 40.9 µM (inactive); in the assay on HOP-62, 33.6 µM (inactive). In addition, the GI50 in the assay on NCI-H226 is 34.8 µM (inactive); with 786-0, 35.2 µM (inactive); in the assay on CCRF-CEM, 35.2 µM (inactive); in the assay on TK-10, 30.7 µM (inactive); with HOP-92, 62.8 µM (inactive); in the assay with SNB-19, 45.6 µM (inactive). In addition, in the assay with RXF 393, the GI50 was 15.7 µM (inactive).
